According to patent EP0628551A1, “Semicyclic urea derivatives as antihistaminic agents” (SHIONOGI & CO., LTD., priority 1993, dated 1994):
In brackets after ≈: the same amount, converted by molar mass.

Legend:
ileum of a guinea pig = test: Evaluation of antihistaminic effects in vitro (inhibition of histamine-induced contraction of isolated ileum, Magnus method); format: cell-based; details: Cavia porcellus; guinea pig ileum in saline solution at 37°C; histamine diphosphate 0.5 µg/ml; subject compound 0.03 to 10 µg/ml; 50% inhibition of submaximal contraction; read-out: Antihistaminic effect IC50
Protocol: The effects of Compound I of the present invention and salts thereof as an antiallergic agents can be evaluated by various methods for measuring antiallergic activity, for example by conducting the following tests (1) and (2). • (1) Antihistaminic effect evaluation test in vitro Histamine diphosphate and Compound I of the present invention or salts thereof are added to an ileum of a guinea pig in a saline solution. The concentration (at which the contraction of the ileum by histamine is inhibited by 50%) of Compound I of the present invention is measured. • (2) Histamine₁ receptor (H₁ receptor) in vitro binding inhibition test As a standard material which binds to a H₁ receptor, pyrilamine is used. Compound I of the present invention is added with varying concentrations to a mixture containing a receptor sample prepared by homogenizing a cerebral cortex of a rat and [³H]-pyrilamine, and incubated. From radioactivity of [³H]-pyrilamine which is bound to the receptor sample, the concentration (IC₅₀) of Compound I inhibiting the specific binding of [³H]-pyrilamine to the receptor sample is measured to obtain an inhibition constant (Ki). Compound I of the present invention has a lower degree of migration to brain. Thus, Compound I has less side effects on the central nervous system such as sleepiness, because of its less frequent binding to the H₁ recepter in brain. The extent of migration of Compound I or salts thereof to the brain can be obtained by the following test method 3. • (3) H₁ receptor binding inhibition test ex vivo A cerebral cortex of a mouse orally administered with Compound I of the present invention is homogenized to prepare a receptor sample. The receptor sample is incubated with [³H]-pyrilamine. From the radioactivity of [³H]-pyrilamine bound to the receptor sample, the inhibition of Compound I with respect to the specific biding of pyrilamine to the receptor sample is obtained.
The following experiments were conducted in accordance with the method of R. Magnus (Arch. F.D. Ges. Physiol., 102: 123-151, 1904). Ileums derived from guinea pigs were respectively soaked in a saline solution at 37°C. Then, histamine diphosphate and a subject compound which had been obtained in the Examples shown in Table 1 were added to each saline solution so that the concentrations of histamine diphosphate and the subject compound are 0.5 µg/ml and 0.03 to 10 µg/ml, respectively. The ileum generally contracts by histamine; however, in the case where the subject compound is present, the antagonistic effect of the subject compound on histamine inhibits the contraction of the ileum. The contraction degree of the ileum was measured at each concentration of the added subject compound, and the concentration IC₅₀ of the subject compound which inhibited 50% submaximal contraction of the ileum by histamine was obtained. The submaximal contraction was obtained in the case where the subject compound was not added. […] When the value of IC₅₀ is lower, the subject cmpound has stronger antihistaminic effects.

H₁ receptor = target: T1, H₁ receptor (Mus musculus, UniProt P70174); test: H1 receptor binding inhibition test ex vivo (migration to the brain, [3H]-pyrilamine binding to cerebral cortex after oral dosing); format: in vivo; details: Slc-ddY male mice, 10 mg/kg orally, cerebral cortex removed 60 minutes after administration, [³H]-pyrilamine 4 nM, lower inhibition = lower migration to brain, read-out: [³H]-labeled pyrilamine binding inhibition ex vivo
T1 construct: A cerebral cortex of a mouse orally administered with Compound I of the present invention is homogenized to prepare a receptor sample; from tissue; host or cells: mouse (Slc-ddY, male) cerebral cortex homogenate after oral dosing
Protocol: The receptor sample is incubated with [³H]-pyrilamine.
Five Slc-ddY male mice were used as one group. First, 10 mg/kg of the compound of the present invention was orally administered to each mouse. The mouse were killed by decapitation 60 minutes after the administration and each cerebral cortex was removed. Each cerebral cortex was frozen on dry ice and kept in a refrigerator at -80°C. Before the experiment, each cerebral cortex was homogenized with about 10 times its volume of 50 mM of Na/K phosphate buffer (pH 7.5). A mixture of each cerebral cortex was further diluted 6 times and used as a receptor sample. A mixture of each receptor sample and [³H]-pyrilamine (4 nM) was incubated at 25°C for 30 minutes. The reaction was stopped by dilution and filtration. The radioactivity of [³H]-pyrilamine bound to the receptor sample on the filter paper was measured by a liquid scintillation counter. The specific binding of [³H]-pyrilamine to the receptor sample was obtained by subtracting the non-specific binding from the total bindings. The non-specific binding was obtained under the conditions of containing 10 µM of non-radioactive pyrilamine. The amount of protein was measured by DC protein assay (Biolad), and the inhibition of the compound of the present invention to the specific binding of [³H]-pyrilamine per 1 mg of protein was measured. […]

T1 sequence (P70174 whole entry): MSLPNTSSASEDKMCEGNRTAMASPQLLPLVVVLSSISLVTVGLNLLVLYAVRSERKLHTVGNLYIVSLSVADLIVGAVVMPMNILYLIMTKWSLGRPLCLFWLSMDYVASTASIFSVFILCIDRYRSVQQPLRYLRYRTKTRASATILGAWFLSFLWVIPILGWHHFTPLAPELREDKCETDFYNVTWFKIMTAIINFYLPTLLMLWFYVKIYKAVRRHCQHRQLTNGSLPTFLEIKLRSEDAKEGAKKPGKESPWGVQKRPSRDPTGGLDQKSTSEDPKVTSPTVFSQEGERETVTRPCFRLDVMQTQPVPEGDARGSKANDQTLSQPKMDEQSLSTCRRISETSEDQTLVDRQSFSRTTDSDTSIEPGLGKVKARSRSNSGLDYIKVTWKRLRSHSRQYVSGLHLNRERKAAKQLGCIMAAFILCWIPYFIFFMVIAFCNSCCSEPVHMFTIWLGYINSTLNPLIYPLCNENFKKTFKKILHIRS

| SMILES | IC50 (ileum of a guinea pig) | inhibition at 10 mg/kg (H₁ receptor) |
| --- | --- | --- |
| O=C(NCCCN1CCC(=C(c2ccccc2)c2ccccc2)CC1)N1CCN(c2ncccn2)CC1 [Example 5] | 0.442 µg/mL (≈ 0.89 µM) | 0% |
| O=C(NCCCN1CCC(OC(c2ccccc2)c2ccccc2)CC1)N1CCN(c2ncccn2)CC1 [Example 15] | 0.0595 µg/mL (≈ 0.116 µM) | 6% |
| O=C(NCCN1CCN(C(c2ccccc2)c2ccccc2)CC1)N1CCN(c2ccccn2)CC1 [Example 39] | 0.119 µg/mL (≈ 0.246 µM) | 4% |
| O=C(NCCCN1CCN(C(c2ccc(F)cc2)c2ccc(F)cc2)CC1)N1CCN(c2ccccn2)CC1 [Example 43] | 0.216 µg/mL (≈ 0.404 µM) | 14% |
| O=C(NCCCN1CCC(OC(c2ccccc2)c2ccccc2)CC1)N1CCN(C(c2ccccc2)c2ccccc2)CC1 [Example 45] | 0.621 µg/mL (≈ 1.03 µM) | 6% |
| O=C1CSCCN1C(=O)NCCCN1CCC(OC(c2ccc(F)cc2)c2ccc(F)cc2)CC1 [Example 49] | 0.0244 µg/mL (≈ 0.0484 µM) | 9% |
| O=C(NCCCN1CCC(OC(c2ccc(F)cc2)c2ccc(F)cc2)CC1)N1CCN(c2ccccn2)CC1 [Example 50] | 0.0817 µg/mL (≈ 0.149 µM) | 2% |
| CCOC(=O)N1CCN(C(=O)NCCCN2CCC(OC(c3ccc(F)cc3)c3ccc(F)cc3)CC2)CC1 [Example 51] | 0.427 µg/mL (≈ 0.784 µM) | 0% |
| O=C(NCCN1CCC(=C(c2ccccc2)c2ccccc2)CC1)N1CCN(c2ccccn2)CC1 [Example 53] | 1.76 µg/mL (≈ 3.66 µM) | 0% |
| O=C(NCCCN1CCC(OC(c2ccccc2)c2ccccc2)CC1)N1CCN(S(=O)(=O)c2cccc3cccnc23)CC1 [Example 55] | 1.14 µg/mL (≈ 1.82 µM) | 0% |
| O=C(NCCCN1CCC(=C(c2ccccc2)c2ccccc2)CC1)N1CCN(S(=O)(=O)c2cccc3cccnc23)CC1 [Example 56] | 1.38 µg/mL (≈ 2.26 µM) | 0% |
| O=C(NCCCN1CCC(OC(c2ccccc2)c2ccccc2)CC1)N1CCN(S(=O)(=O)c2cccnc2)CC1 [Example 61] | 0.196 µg/mL (≈ 0.339 µM) | 6% |
| CC(C)(C)OC(=O)N1CCN(C(=O)NCCCN2CCC(OC(c3ccccc3)c3ccccc3)CC2)CC1 [Example 70] | 0.0889 µg/mL (≈ 0.166 µM) | 2% |
| CC(C)(C)OC(=O)N1CCN(C(=O)NCCCN2CCC(=C(c3ccccc3)c3ccccc3)CC2)CC1 [Example 71] | 1.12 µg/mL (≈ 2.16 µM) | 7% |
| O=C1CCCN1C(=O)NCCCCCN1CCN(C(c2ccccc2)c2ccccc2)CC1 [Example 79] | 0.042 µg/mL (≈ 0.0936 µM) | 5% |
| O=c1[nH]c2ccccc2n1CCCN1CCN(C(c2ccccc2)c2ccccc2)CC1 [Oxatoamide, reference compound] | 1 µg/mL (≈ 2.34 µM) | 17% |
| CC(C)(C)c1ccc(C(O)CCCN2CCC(C(O)(c3ccccc3)c3ccccc3)CC2)cc1 (stereo not drawn) [Terfenadine, reference compound] | 22.4 µg/mL (≈ 47.4 µM) |  |
